The results in this text go back to patent US20140235840A1, “NEW SYNTHESIS OF FUCOSE” (GLYCOM A/S, priority 2011, published 2014).

Data set [1] can be described thus: Partition studies between organic solvent and water. As to conditions: for Number of volumes of organic solvent: to reach at least 95% of recovery using one volume of organic solvent each time relative to one volume of aqueous solution; for solubility in organic solvents: as compared to aqueous solvents; for amount of compound from aqueous phase / amount of compound from organic phase: 197 mg (cyclohexylidene) or 150 mg (isopropylidene) partitioned. The class given is physicochemical. As to the method: 1,2-O-Cyclohexylidene-6-deoxy-β-L-talofuranose (197 mg) was partitioned between water (10 mL) and methylene chloride (10 mL), layers separated and the residual amount of solutions in the separatory funnel were partitioned with extra amount of water (5 mL) and methylene chloride (5 mL). The combined organic phases were evaporated and dried in vacuo (50° C., <1 mbar, 1 hour) to give 140 mg of the title compound. The aqueous solution gave 53 mg after lyophilisation and drying in vacuo (50° C., <1 mbar, 2 hrs). Using the same procedure, partition between ethyl acetate and water provided 127 mg of the title compound from ethyl acetate phase and 70 mg from the aqueous phase.
Analogously, 1,2-O-isopropylidene-6-deoxy-β-L-talofuranose (150 mg) was partitioned between methylene chloride (24 mg) and aqueous phase (126 mg). Partition between ethyl acetate and water furnished 7 mg and 143 mg of the title compound, respectively.

Data set [2] is described as follows: shake-flask partition; gravimetric recovery from each phase. As to conditions: not told.
The mark [3] stands for this setting: conclusion in words from partition results.
Setting [4] is: solvent system ethyl acetate-water.

Molecules are shown by their SMILES.

Turning to `C[C@H](O)[C@H]1O[C@@H]2OC3(CCCCC3)O[C@@H]2[C@@H]1O` [1,2-O-Cyclohexylidene-6-deoxy-β-L-talofuranose], in data set [1] (CH2Cl2-water), the “Number of volumes of organic solvent” value came out at 3. In data set [1] (setting [3]), the “affinity to organic solvents versus aqueous media” value is recorded as “higher affinity to organic solvents as compared to aqueous media” and the “solubility in organic solvents” value is on record as “much higher solubility”. Besides, in data set [1] (ethyl acetate-water), the “amount of compound from aqueous phase” value is on record as 70 mg, the “amount of compound from organic phase” value worked out at 127 mg and the “Number of volumes of organic solvent” value was determined as 3. For the same compound, in data set [1] (methylene chloride-water), the “amount of compound from aqueous phase” value was 53 mg and the “amount of compound from organic phase” value is 140 mg. Besides, in data set [1] (solvent system CH2Cl2-water), the “Partition P (=[C]org/[C]aq)” value is 2.64 and the logP is reported as 0.42. For the same compound, in data set [1] (setting [4]), the “Partition P (=[C]org/[C]aq)” value is listed as 1.81 and the lipophilicity (logP) worked out at 0.26.
`C[C@H](O)[C@H]1O[C@@H]2OC(C)(C)O[C@@H]2[C@@H]1O` [1,2-O-isopropylidene-6-deoxy-β-L-talofuranose]: the “Number of volumes of organic solvent” value in data set [1] (CH2Cl2-water) is listed as 18. Moreover, in data set [1] (setting [3]), the “affinity to organic solvents versus aqueous media” value is on record as “higher affinity to aqueous medium”, the “solubility in aqueous solutions” value is listed as “highly soluble” and the “solubility in organic solvents” value was “almost insoluble”. In data set [1] (ethyl acetate-water), the “amount of compound from aqueous phase” value was found to be 143 mg, the “amount of compound from organic phase” value is 7 mg and the “Number of volumes of organic solvent” value is listed as 21. For the same compound, in data set [1] (methylene chloride-water), the “amount of compound from aqueous phase” value amounted to 126 mg and the “amount of compound from organic phase” value worked out at 24 mg. The “Partition P (=[C]org/[C]aq)” value in data set [1] (solvent system CH2Cl2-water) was found to be 0.19. In data set [1] (setting [4]), the “Partition P (=[C]org/[C]aq)” value stood at 0.16. Also, in data set [2], the “log partition ethyl acetate / water” value is 0.16 concentration ratio (mass-based) and the “log partition methylene chloride (CH2Cl2) / water” value is 0.19 concentration ratio (mass-based).

The term logP denotes a log measure of how a compound divides between an organic and an aqueous phase. A lower logP goes with lower lipophilicity.
